Here are results for nine compounds from patent US10689377B2 (Mirati Therapeutics, Inc., priority 2017, dated 2020).

A value given as a limit tells only on which side of the number the result lay.

Chain of KRas G12C (P01116 1-188 isoform P01116-2 G12C): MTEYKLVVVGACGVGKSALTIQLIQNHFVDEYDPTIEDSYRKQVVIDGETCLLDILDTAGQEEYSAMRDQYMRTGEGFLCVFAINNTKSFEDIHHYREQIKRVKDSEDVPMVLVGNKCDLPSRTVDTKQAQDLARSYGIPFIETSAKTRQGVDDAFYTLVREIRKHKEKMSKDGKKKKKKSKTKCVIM

The target of the assay is KRas G12C (Homo sapiens, UniProt P01116, G12C). The assay can be described thus: Cellular inhibition of KRas G12C measured by Phospho-ERK in NCI-H358 cells. The class given is cell-based. To be noted: pERK(Thr202/Tyr204) normalized with GAPDH, NCI-H358 cells, 3 hours; read-out: IC50. The procedure, abridged:
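Following 8-12 h attachment, NCI-H358 cells got serially diluted compound (0.5% DMSO) for 3 hours. Cells were then fixed, permeabilized with cold methanol, and stained for pERK(Thr202/Tyr204) and GAPDH. Ratios were converted to percent of DMSO control, with IC50 obtained by four-parameter regression.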
On to `C=CC(=O)N1CCN(c2nc(OC[C@H]3CCCN3C)nc3c2CCN(c2c(C(F)(F)F)ccc4[nH]ncc24)C3)CC1CC#N` (stereo partly drawn) [Example 243, 2-[4-[2-[[(2R)-1-methylpyrrolidin-2-yl]methoxy]-7-[5-(trifluoromethyl)-1H-indazol-4-yl]-6,8-dihydro-5H-pyrido[3,4-d]pyrimidin-4-yl]-1-prop-2-enoyl-piperazin-2-yl]acetonitrile], for which the IC50 (usually the concentration needed to halve the response being measured) lay in the range of 0.1 to 1000 nM.
For the compound `Cc1cccc(N2CCc3c(nc(OC[C@@H]4CCCN4C)nc3N3CCN(C(=O)/C=C\Cl)[C@@H](CC#N)C3)C2)c1C` [Example 505, 2-((S)-1-((Z)-3-chloroacryloyl)-4-(7-(2,3-dimethylphenyl)-2-(((S)-1-methylpyrrolidin-2-yl)methoxy)-5,6,7,8-tetrahydropyrido[3,4-d]pyrimidin-4-yl)piperazin-2-yl)acetonitrile], the IC50 is greater than 1000 nM.
Regarding `Cc1cccc2cccc(N3CCc4c(nc(OC[C@@H]5CCCN5C)nc4N4CCN(C(=O)C5=CC(=O)CC5)[C@@H](CC#N)C4)C3)c12` [Example 497, 2-((S)-4-(7-(8-methylnaphthalen-1-yl)-2-(((S)-1-methylpyrrolidin-2-yl)methoxy)-5,6,7,8-tetrahydropyrido[3,4-d]pyrimidin-4-yl)-1-(3-oxocyclopent-1-ene-1-carbonyl)piperazin-2-yl)acetonitrile], the IC50 is 0.1 to 1000 nM.
Under `C=CC(=O)N1CCN(c2nc(OC[C@@H]3CCCN3C)nc3c2CCN(c2ccc(F)c4ccccc24)C3)CC1CC#N` (stereo partly drawn) [Example 246, 2-[4-[7-(4-fluoro-1-naphthyl)-2-[[(2S)-1-methylpyrrolidin-2-yl]methoxy]-6,8-dihydro-5H-pyrido[3,4-d]pyrimidin-4-yl]-1-prop-2-enoyl-piperazin-2-yl] acetonitrile] stands 0.1 to 1000 nM; under `C=CC(=O)N1CCN(c2nc(NC3CCN(C4CC4)CC3)nc3c2CCN(c2cc(O)cc4ccccc24)C3)CC1` [Example 204, 1-(4-(2-((1-cyclopropylpiperidin-4-yl)amino)-7-(3-hydroxynaphthalen-1-yl)-5,6,7,8-tetrahydropyrido[3,4-d]pyrimidin-4-yl)piperazin-1-yl)prop-2-en-1-one], greater than 1000 nM.
For the compound `C=CC(=O)N1CCN(c2nc(OC[C@@H]3CCCN3C)nc3c2CCN(c2cccc(F)c2C)C3)CC1CC#N` (stereo partly drawn) [Example 411, 2-(1-acryloyl-4-(7-(3-fluoro-2-methylphenyl)-2-(((S)-1-methylpyrrolidin-2-yl)methoxy)-5,6,7,8-tetrahydropyrido[3,4-d]pyrimidin-4-yl)piperazin-2-yl)acetonitrile], the IC50 lay in the range of 0.1 to 1000 nM.
For `C=CC(=O)N1CCN(c2nc(OCC(CO)N(C)C)nc3c2CCN(c2cc(O)cc4ccccc24)C3)CC1` (stereo not drawn) [Example 55, 1-(4-(2-(2-(dimethylamino)-3-hydroxypropoxy)-7-(3-hydroxynaphthalen-1-yl)-5,6,7,8-tetrahydropyrido[3,4-d]pyrimidin-4-yl)piperazin-1-yl)prop-2-en-1-one] the value was 0.1 to 1000 nM.
For `C=CC(=O)N1CCN(c2nc(OCCN3CCCC[C@@H]3C)nc3c2CCN(c2cc(O)cc4ccccc24)C3)CC1` [Example 88, (S)-1-(4-(7-(3-hydroxynaphthalen-1-yl)-2-(2-(2-methylpiperidin-1-yl)ethoxy)-5,6,7,8-tetrahydropyrido[3,4-d]pyrimidin-4-yl)piperazin-1-yl)prop-2-en-1-one] the value was 0.1 to 1000 nM; for `C=CC(=O)N1CCN(c2nc(OC[C@@H]3CCCN3C)nc3c2CCN(c2cncc(Cl)c2C(F)(F)F)C3)C[C@@H]1CC#N` [Example 385, 2-((S)-1-acryloyl-4-(7-(5-chloro-4-(trifluoromethyl)pyridin-3-yl)-2-(((S)-1-methylpyrrolidin-2-yl)methoxy)-5,6,7,8-tetrahydropyrido[3,4-d]pyrimidin-4-yl)piperazin-2-yl)acetonitrile], 0.1 to 1000 nM.
